These results are taken from article PMC3348524, “Diverse Effects of Glutathione and UPF Peptides on Antioxidant Defense System in Human Erythroleukemia Cells K562” (International Journal of Peptides, 2012).

The test system of data set [1] is equine kidney γ-glutamyltranspeptidase. Nature of the data set: Stability towards γ-glutamyltranspeptidase (HPLC-MS). Conditions: 1 mM peptide, 0.3 mg/mL equine kidney GGT, 0.1 M Tris-HCl pH 7.4, 0.1% EDTA, 6 mM Gly-Gly acceptor, 37°C, 1 h; HPLC-MS read-out.
Description: 6 mM Gly-Gly was added as an acceptor for γ-Glu moiety [20]. GSH was incubated with GGT under the same conditions as the control. The samples were heat-inactivated, centrifuged at 10000 g and +4°C for 5 min, and kept on ice until analyzed. Supernatants were analyzed on a Prominence HPLC (Shimadzu, Japan) and Q-Trap 3200 (Applied Biosystems, USA) mass spectrometry tandem. Luna C18 100 × 2 mm, 3 μm column from Phenomenex was used for sample separation. Solvent A was a mixture of 99.9% water and 0.1% HCOOH, and solvent B was a mixture of 99.9% acetonitrile and 0.1% HCOOH (mass spectrometry grade, Riedel-de Haėn, Germany). Samples were eluated at a flow rate of 0.1 mL/min, gradient started with 5 min at isocratic flow of solvent A, concentration of solvent B increased up to 30% in 25 min, followed by wash with 100% solvent B in 20 min. Enhanced MS scans were performed in negative mode with rate 1000 amu/s between mass range 50–1700 Da. Ionspray voltage was set to −4500 V, declustering potential to −30 V and entrance potential to −10 V.
For data set [2], the system named is K562 cells. Details: method as in PMID 17577738, PMID 15489015. Particulars: cited from earlier work.
The nature of data set [3]: pKa of thiol groups, spectrophotometric titration. The format is physicochemical. Conditions: 50 μM peptide in phosphate buffered saline, titrated with 1 M NaOH, absorbance at 240 nm. How it is done: The ratio of thiol and thiolate concentrations were measured spectrophotometrically at 240 nm on a PerkinElmer Lambda 25 spectrometer similarly as previously for GSH and α-GSH [21]. 1 mL of 50 μM peptide solution in phosphate buffered saline (Calbiochem, USA) was titrated with 5 μL volumes of 1 M NaOH and pH and absorbance changes were determined after each addition. The results were corrected to consider the dilution of the assay mixture during titration.

The subject of data set [4] is primary culture of cerebellar granule cells. Also noted: method as in PMID 17577738, PMID 15489015. Particulars: cited from earlier work.
The conditions of data set [5]: previous work; cited from earlier work. The text has this:
UPF1 and UPF17 have also shown different effects in free radical scavenging experiments. According to the classification of kinetic behavior by Sánches-Moreno et al., UPF17 is classified as fast and UPF1 as intermediate DPPH radical scavenger. […] This raised a question about pKa values for the thiol groups of UPF peptides. Previously, the change of γ-peptide bond to α-peptide bond has also been investigated f ...

Like-named read-outs stand apart in the source and are kept apart here. Numbered stars: 1 amine (or outer) side, 2 acyl side, 3 side chain; on linkers, the order of the positions; unused ones are H or OH. Bridge positions count the residues as written; N and C are the ends. Square brackets hold non-standard residues; d marks the D form. Peptide text beside a SMILES is read from it. I, II: the chains in the order shown. γGlu = O=C(O)[C@H](CCC(=O)[*:2])N[*:1] Where only a bound is given, the exact number is not on record here.

Take `COc1ccc(C[C@H](N)C(=O)N[C@@H](CCC(=O)N[C@@H](CS)C(=O)NCC(=O)O)C(=O)O)cc1` [UPF1, Tyr(Me)-γ-Glu-Cys-Gly] (H-Y(Me)[γGlu]CG-OH): the “degradation by GGT” value in data set [1] is given as “not degraded”. In addition, the “concentration up to which nontoxic for K562 cells” value in data set [2] is at most 200 µM. Also, in data set [3], the “pKa of thiol group” value is 9.3 ± 0.1. Further, in data set [4], the “concentration up to which no toxic effect on cerebellar granule cells” value is given as “up to 100 μM”.

In the case of `COc1ccc(C[C@H](N)C(=O)N[C@@H](CCC(=O)O)C(=O)N[C@@H](CS)C(=O)NCC(=O)O)cc1` [UPF17, Tyr(Me)-Glu-Cys-Gly] (H-Y(Me)ECG-OH), in data set [2], the “concentration up to which nontoxic for K562 cells” value is at most 200 µM. Further, the “pKa of thiol group” value in data set [3] was 9.4 ± 0.2.

As to `N[C@@H](CCC(=O)N[C@@H](CS)C(=O)NCC(=O)O)C(=O)O` [GSH, γ-L-Glu-L-Cys-Gly, reference compound], the “pKa of thiol group” value in data set [5] is 9.0 ± 0.1; in data set [3], 9.0 ± 0.3.

As to `COc1ccc(C[C@H](N)C(=O)N[C@@H](CCC(=O)N[C@@H](CSSC[C@H](NC(=O)CC[C@H](NC(=O)[C@@H](N)Cc2ccc(OC)cc2)C(=O)O)C(=O)NCC(=O)O)C(=O)NCC(=O)O)C(=O)O)cc1` [dimerised UPF1] (I: H-Y(Me)[γGlu]CG-OH / II: H-Y(Me)[γGlu]CG-OH; disulfide I:3-II:3), in data set [1], the “degradation by GGT” value was “not detected”.

With `N[C@@H](CCC(=O)O)C(=O)N[C@@H](CS)C(=O)NCC(=O)O` [α-GSH] (H-Glu-Cys-Gly-OH), the “pKa of thiol group” value in data set [5] and in data set [3] was 9.1 ± 0.1 throughout.
